Source: patent publication US12275685B2, “Oligo-benzamide analogs and their use in cancer treatment” (Board of Regents, The University of Texas System, priority 2018, dated 2025)
Like-named read-outs stand apart in the source and are kept apart here.

Assays:
[1] = test system: MCF-7 MT-ERα Y537S cells; type: cell-based; conditions: 200 nM
[2] = test system: MT-ERα expressing BC cells; assay: Apoptosis by annexin staining; type: cell-based; conditions: within 72 h after treatment, 200 nM
Description: FIG. 55: Effect of 200 nM TX-542 on apoptosis of MT-ERα expressing BC cells.
(§1) The 200 nM dose for these drugs reflects the level at which each of these drugs has a significant effect on spheroid formation in the MCF-7 WT-ERa cells. Taken together, these studies indicate that TX-542 has significant activity against both WT-ERα and MT-ERα driven ERα+ BC cell lines and is a worthwhile candidate for further study.

[3] = Protein binding; type: in vitro ADME
[4] = test system: estrogen receptor-positive breast cancer; assay: Growth inhibition of ER-positive breast cancer; type: cell-based
[5] = test system: ER-null (SUM-159 or MDA-MB-231 cells); assay: Antiproliferative assay in ER-null cells; type: cell-based
Description: (§2) FIG. 52: Comparative efficacy of TX-542 and SERDs in BC cells expressing WT and/or MT ERα: Using CRISPR-Cas9, both copies of WT ERα genes were knocked out in ZR-75 and T47-D, while only one copy of WT Era was knocked out in MCF-7 cells. Following knockout of WT ERα clones with stable expression of either Y537S ERα MT or the D538G ERα MT were selected. […] ERα-negative TNBC cells (SUM-159 and MDA-MB-231) were used as controls. Dose response curves were generated for ERX-11, TX-542 and SERDs using cell titer glo assays. IC50 values for each cell line and drug were calculated and tabulated. Tam=tamoxifen, ICI=fulvestrant, GDC-0810=Genentech SERD, AZD-9496 Astra Zeneca SERD, RAD-1901=Radius SERD, Palbo=Palbociclib. IC50 values<50 nM are shown in red.
(§3) TX-542. TX-542 was potent (IC50˜20-50 nM) as an antiproliferative agent against expressing MT-ERα, both in genetically modified MCF-7 cells with one WT-ERα allele and one MT-ERα allele introduced by CRISPR and genetically modified ZR-75 or T47-D cells in which both copies of WT-ERα alleles were replaced using CRISPR with MT-ERα. TX-542 had no activity against ER-null (SUM-159 or MDA-MB-231 cells) or non-tumorigenic breast epithelial cells, such as human mammary epithelial cells (HMEC). […] In addition, these agents are not able to consistently target all the MT-ERα forms in distinct genetic contexts, as shown in FIG. 52 and as reported by others.

[6] = test system: human mammary epithelial cells (HMEC); assay: Antiproliferative assay of TX-542 in HMEC; type: cell-based
Description: as §3

[7] = test system: MCF-7 MT-ERα Y537S and D538G cells; type: cell-based; conditions: comparators at 200 nM in MCF-7 MT-ERα Y537S cells
[8] = Pharmacokinetic profile of TX-542; type: in vivo
Description: FIG. 58: PK properties of TX-542 indicate a half-life in plasma of 8 h and accumulation over time in tumor.
(§4) To establish the pharmacokinetic (PK) profile of TX-542, the inventors worked with the UTSW preclinical pharmacology core to characterize pharmacologic properties of TX-542 (FIG. 58). These studies indicated an 8-h half-life of TX-542 in the plasma, with drug detectable in both the liver and kidney after intraperitoneal (i.p.) administration.

[9] = test system: WT-ERα ZR-75 or MT-ERα MCF-7 xenografts; assay: TX-542 in ERα BC xenografts; type: in vivo, nude mice
Description: FIGS. 59A-B: MCF-7 MT-ERa D538G and Y537S xenograft tumors were injected into the mammary fat pad of nude mice. Once the tumors were established (100 mm^3), treatment with either vehicle or TX-542 (10 mg/kg/ip) was commenced and their effect on tumor growth and mice body weights were graphed (n=9 per group).
as §4

[10] = test system: MT-ERα; assay: ChIP of MT-ERα DNA binding, TX-542; type: cell-based
[11] = test system: BC cells expressing WT-ERα and MT-ERα; assay: Clonogenic assay; type: cell-based; conditions: 100 nM
Description: FIG. 53: Effect of 100 nM TX-542 on clonogenic survival of WT-ERα and MT-ERα BC cell lines.
as §1

[12] = test system: MT-ERα; assay: ERE luciferase reporter gene assay, TX-542; type: cell-based; conditions: minimal promoter with three copies of ERE
[13] = test system: BC cells expressing MT-ERα (MCF-7, ZR-75, T47-D); assay: Cell titer glo antiproliferative assay in MT-ERα BC cells; type: cell-based
Description: as §2, §3

[14] = test system: ERα; type: cell-based; conditions: MT-ERα, 200 nM
[15] = test system: MT-ERα expressing BC metastasis; assay: Metastatic models (intracardiac, intratibial injection); type: in vivo, mice
Description: FIG. 63: Following intracardiac injection of luciferase-tagged ZR-75 MT-ERα Y537S tumors, mice are imaged five at a time under 2% isoflurane gas anesthesia. Each mouse is injected with D-Luciferin and imaged 10-15 minutes after the injection. BLI signal is quantified in regions of interest (ROIs) drawn around tumors, specific areas (for example cranial, thoracic or abdominal), whole body or tissues ex vivo and the signal is expressed as photons per second, representing the flux radiating omni-directionally from the user-defined region. Images are analyzed using Living Image 4.3.1 (PerkinElmer, Waltham, MA) software. Once the tumors were established (40,000 luminescene counts at 30 seconds exposure), mice were treated either with vehicle or TX-542. […] Relative luminescence counts are mapped (middle panel). Mice were sacrificed once symptomatic and the survival curves for vehicle treated (black) or TX-542 treated (red) are graphed (right panel) (n=6 in each group).
Once tumors were established, daily treatment of mice with either vehicle or TX-542 (10 mg/kg/ip) were performed. Results are shown and graphed (n=6).
(§5) Since MT-ERα is primarily expressed in metastases, the inventors used metastatic models to evaluate effect of TX-542 on the development and progression of metastasis.

[16] = test system: BC cells expressing MT-ERα; assay: Boyden chamber invasion assay; type: cell-based
Description: FIG. 62: Effect of TX-542 on invasiveness of BC cells expressing Erα mutants in a Boyden chamber assay.
as §5

SMILES: NCCC(=O)Nc1ccc(C(=O)Nc2ccc(C(=O)NCCc3ccc4ccccc4c3)cc2OCC2CCCCC2)cc1OCCO [TX-542]
- soft agar colony formation [1]: potently reduced soft agar colony formation
- apoptotic cell death [2]: induced apoptotic cell death
- bound to proteins [3]: 75%
- growth inhibition of ER-positive breast cancer [4]: strong growth inhibition
- specificity for ER-positive cells [4]: high specificity
- activity against ER-null cells [5]: no activity
- activity against non-tumorigenic breast epithelial cells [6]: no activity
- spheroid size or architecture [7]: disrupted spheroid architecture
- level in tumor tissue ([8]; 24 h after the last dose, daily i.p. 10 mg/kg): > 0.1 mg/g
- time to steady state levels in tumor ([8]; MCF-Y537S xenografts, daily i.p. 10 mg/kg): 5 days
- half-life ([8]; mouse, plasma, intraperitoneal): 8 h
- concentration at 24 h ([8]; mouse, tumor, intraperitoneal, 10 mg/kg, 24 h after the last dose, read-out: corresponding tumor concentration): > 200 nM
- growth of established xenografts ([9]; 10 mg/kg/ip): potent activity
- mouse body weights ([9]; 10 mg/kg/ip): no effect on mouse body weights
- renal and liver parameters, histopathology, clinical chemistry ([9]; treated animals): lack of change in renal and liver parameters
- MT-ERα DNA binding [10]: blocks both basal and estradiol-induced MT-ERα DNA binding
- clonogenic survival [11]: significantly reduced the survival
- ERE-driven transcription [12]: decrease transcription
- IC50 ([13]; MCF-7, ZR-75 or T47-D cells expressing MT-ERα, read-out: IC50, antiproliferative): 20 to 50 nM
- IC50 ([13]; MT-ERα alone (ZR-75 and T47-D) or with WT-ERa (MCF-7), read-out: IC50 in multiple MT-ERα models): < 50 nM
- onset of effect on MT-ERα levels [14]: not noticeable until 24 h
- growth of lung and bone metastasis ([15]; 10 mg/kg/ip): decrease the growth of lung metastasis
- animals that formed mets ([15]; within 4 weeks, treatment started immediately after intracardiac injection): 1/6
- invasion of BC cells expressing MT-ERα [16]: potently affects the invasion
